Test results published in patent US6913878B2, “Method of detecting DNA single strand breaks” (The University of North Carolina at Chapel Hill, priority 2003, dated 2005).

Assays:
[1] = system: EM9-V cells (XRCC1-deficient CHO EM9 cells expressing empty vector); assay: Intracellular NAD(P)H assay with water-soluble tetrazolium salt WST-8 (CCK-8); type: cell-based, Chinese hamster
Method: (§1) XRCC1-proficient and -deficient CHO cells (Taylor, et al. (2002) Mol. Cell. Biol. 22:2556-2563) were cultured as monolayers in alpha-minimal essential medium (INVITROGEN™, Carlsbad, Calif.) supplemented with 10% fetal bovine serum (Sigma-Aldrich, St. Louis, Mo.), 100 μg/mL penicillin, and 100 μg/mL streptomycin. Immortalized mouse embryonic fibroblasts derived from PART-1^+/+ and PARP-1^−/− were maintained in Dulbecco's modified Eagle's medium, 4.5 g/Liter glucose medium (INVITROGEN™, Carlsbad, Calif.) supplemented with 10% fetal bovine serum and 0.5% gentamicin (Schreiber, et al. (2002) J. Biol. Chem. 277:23028-23036). Human lymphoblastoid cells (GM15030, GM15061, GM15237, GM15268, GM15339, GM15349, GM15365, and GM15380; Coriell Cell Repositories, Camden, N.J.) were grown in RPMI 1640 medium (INVITROGEN™, Carlsbad, Calif.) supplemented with 15% fetal bovine serum (Sigma-Aldrich, St. Louis, Mo.), 100 μg/mL penicillin, and 100 μg/mL streptomycin. The cells were maintained in a humidified atmosphere of 5% CO2 and 95% air at 37° C.
(§2) A water-soluble tetrazolium salt was used to measure the amount of intracellular NAD(P)H through the reduction to a formazan dye. The total amount of NAD(P)H within viable cells in the medium was determined periodically by a spectrophotometer. Cells were seeded into 96-well plates (CHO cells and mouse fibroblasts: 5×10^3 cells/well; lymphoblastoid cells: 15×10^3 cells/well) and were cultured in 100 μL of medium with fetal bovine serum and antibiotics as described. After a 30-minute incubation, cells were treated with MMS at indicated concentrations and 1/10 volume of CCK-8 solution (Dojindo Molecular Technology, Gaithersburg, Md.) which consisted of a water-soluble 2-(2-methoxy-4-nitrophenyl)-3-(4-nitrophenyl)-5-(2,4-disulfophenyl)-2H-tetrazolium monosodium salt (WST-8; 5 mM) and 1-Methoxy-5-methylphenazinium methylsulfate (1-Methoyx PMS; 0.2 mM) as an electron mediator. Cells in each well were further cultured for up to 4 hours. WST-8 produced a water-soluble yellow-colored formazan dye through its bioreduction either in the presence of an electron carrier, such as 1-Methoxy PMS, Diaphorase, a flavoenzyme, or directly by NAD(P)H. Therefore, the reduction of tetrazolium salts predominantly depends on the amount of intracellular NAD(P)H. The amount of formazan dye produced by the living cells in the medium was determined approximately every 30 minutes by a spectrophotometer and compared to the values of the control. Absorbance was recorded in a 96-well plate reader at 450 nm with a 650 nm reference filter. A medium blank was prepared with only medium and CCK-8 reaction solution. Decreases in the intracellular NAD(P)H were assessed by comparing the absorbance of a well containing cells treated with MMS against that of a well with cells treated with phosphate-buffered saline (PBS) only.
(§3) XRCC1 functions as a scaffold for interaction with other base excision repair-associated proteins including human AP endonuclease (APE1), DNA Pol-β, DNA Ligase III, Polynucleotide Kinase (PNK), and PARP-1 (Caldecott, et al. (1996) Nucl. Acids Res. 24:4387-4394; Whitehouse, et al. (2001) Cell 104:1-11; Kubota, et al. (1996) EMBO J. 15:6662-6670; Caldecott, et al. (1994) Mol. Cell. Biol. 14:68-76; Caldecott, et al. (1995) Nucl. Acids Res. 23:4836-4843) and is required for efficient single strand break repair and genetic stability in mammalian cells. Rodent cells lacking XRCC1 are hypersensitive to DNA damaging agents (Whitehouse, et al. (2001) Cell 104:1-11; Kubota, et al. (1996) EMBO J. 15:6662-6670; Caldecott, et al. (1994) Mol. Cell. Biol. 14:68-76). […]

[2] = system: EM9-XH5 cells (CHO EM9 cells expressing wild-type human XRCC1); assay: as above; type: cell-based, Chinese hamster
Method: as §1, §2, §3

[3] = system: EM9-V and EM9-XH5 CHO cells; assay: Trypan blue dye-exclusion assay (cell death); type: cell-based, Chinese hamster; settings: MMS 0, 0.75, 1.5 mM for 1 and 4 hours; any concentration
Method: Cell death was determined with trypan blue staining. Cells were treated with MMS at 0, 0.75, and 1.5 mM for 1 and 4 hours. After trypsinization, cells were stained using a standard trypan blue dye-exclusion assay.

[4] = system: PARP-1+/+ immortalized embryonic fibroblasts; assay: Intracellular NAD(P)H assay (WST-8) in PARP-1+/+ fibroblasts; type: cell-based, mouse; settings: PARP-1+/+ cells, MMS 4 hours (FIG. 4A)
Method: (§4) XRCC1-proficient and -deficient CHO cells (Taylor, et al. (2002) Mol. Cell. Biol. 22:2556-2563) were cultured as monolayers in alpha-minimal essential medium (INVITROGEN™, Carlsbad, Calif.) supplemented with 10% fetal bovine serum (Sigma-Aldrich, St. Louis, Mo.), 100 μg/mL penicillin, and 100 μg/mL streptomycin. Immortalized mouse embryonic fibroblasts derived from PART-1^+/+ and PARP-1^−/− were maintained in Dulbecco's modified Eagle's medium, 4.5 g/Liter glucose medium (INVITROGEN™, Carlsbad, Calif.) supplemented with 10% fetal bovine serum and 0.5% gentamicin (Schreiber, et al. (2002) J. Biol. Chem. 277:23028-23036). […]
(§5) A water-soluble tetrazolium salt was used to measure the amount of intracellular NAD(P)H through the reduction to a formazan dye. The total amount of NAD(P)H within viable cells in the medium was determined periodically by a spectrophotometer. […] WST-8 produced a water-soluble yellow-colored formazan dye through its bioreduction either in the presence of an electron carrier, such as 1-Methoxy PMS, Diaphorase, a flavoenzyme, or directly by NAD(P)H. Therefore, the reduction of tetrazolium salts predominantly depends on the amount of intracellular NAD(P)H. The amount of formazan dye produced by the living cells in the medium was determined approximately every 30 minutes by a spectrophotometer and compared to the values of the control. […]

[5] = system: PARP-1-/- immortalized embryonic fibroblasts; assay: Intracellular NAD(P)H assay (WST-8) in PARP-1-/- fibroblasts; type: cell-based, mouse; settings: PARP-1-/- cells, MMS 4 hours, compared with PARP-1+/+ cells (FIG. 4B)
Method: as §4, §5

EM9-V cells [6] = type: cell-based, Chinese hamster; settings: immediately after 1 hour MMS treatment (FIG. 5D)
Method: A direct comparison was conducted between the method of the invention measuring NAD(P)H and the Comet assay for the detection of single strand breaks. Slides for the Comet assay were prepared using well-known methods (Tennant, et al. (2001) Mutat. Res. 493:1-10). Briefly, slides were dipped into agarose and dried at 60° C. Low melting point agarose (0.5%) was prepared and held at 42° C. Cell suspensions (1×10^4 cells/10 μL) were mixed with 190 μL low melting point agarose. Ninety μL of this suspension was pipetted onto each of two slides and covered with a coverglass. Each slides was placed on ice for 5 minutes, the coverglass was removed, 90 μL of low melting point agarose was pipetted onto each slide, a coverglass was reapplied, and slides were returned to the ice. After 5 minutes, the coverglass was removed and the slides were placed in lysis buffer (pH 11) containing 2.5 M NaCl, 100 mM EDTA-2Na, 10 mM Tris, 1% Na Sarcosinate, 1% TRITON® X-100 and 10% dimethylsulfoxide for 20 minutes. Following lysis, the slides were placed in denaturation buffer (i.e., electrophoresis buffer; 300 mM NaOH, 1 mM EDTA, pH 13). […]
Slides were stained using 35 μL of SYBR GREEN-1™ (MOLECULAR PROBES™, Eugene, Oreg.)(10× in Tris-EDTA buffer pH 8.0) and a coverglass was applied. […] Fifty cells from each of two slides were analyzed by a independent scorer who had no knowledge of the treatment. […]

[7] = system: Human lymphoblastoid cells (GM15030, GM15061, GM15237, GM15268, GM15339, GM15349, GM15365, GM15380); assay: Intracellular NAD(P)H assay (WST-8) in lymphoblastoid cells; type: cell-based; settings: eight healthy individuals, MMS 4 hours (FIG. 6A)
Method: as §4, §5

EM9-V cells [8] = assay: Intracellular NAD(P)H assay using XTT or MTS; type: cell-based, Chinese hamster
Method: (§6) XTT^1) (2,3-bis[2-Methoxy-4-nitro-5-sulfophenyl]-2H-tetrazolium-5-carboxy-anilide inner salt) and MTS^2) (3-(4,5-dimethylthiazol-2-yl)-5-(3-carboxynethoxyphenyl)-2-(4-sulfophenyl)-2H-tetrazolium, inner salt), water-soluble tetrazolium salts, were used to measure the amount of intracellular NAD(P)H through the reduction to a water-soluble formazan dye. EM9-V and XH5 cells were seeded into 96-well plates and were cultured in 100 μL of medium with fetal bovine serum and antibiotics as described (10,000 cells per well). After a 30-minute incubation, cells were treated with DMS (dimethylsulfate) at indicated concentrations and 1/10 volume of either XTT with an electron coupling agents such as phenazine methosulfate (Sigma) or MTS with phenazine methosulfate (Promega). Cells in each well were further cultured for up to 4 hours. Either XTT or MTS produced a water-soluble yellow-colored formazan dye and the absorbance was recorded in a 96-well plate reader at 450 nm with a 650 nm reference filter.
(§7) These cells were exposed to DMS at different concentrations for 2.5 or 4 hours. […] In addition, CHO cells were co-exposed to DMS and PARP inhibitor, 3-aminobenzamide (10 mM) and were applied 1 to 2 hours prior to the DMS treatment and kept in the medium during DMS exposure until the cells were analyzed.

EM9-XH5 cells = assay: Intracellular NAD(P)H assay using XTT or MTS; type: cell-based, Chinese hamster; settings: DMS 4 hours (XTT) or 2.5 hours (MTS) (FIG. 7A, B)
Method: as §6, §7

For `COS(C)(=O)=O` [MMS, methyl methanesulfonate], which “intracellular NAD(P)H on treatment with MMS” value ([1]; EM9-V cells, MMS at different concentrations for 4 hours, dose-dependent (FIG. 2A)) is on record?
Its value is “significantly reduced”.

What about the “lowest MMS concentration at which decrease in intracellular NAD(P)H was detected” value ([1]; EM9-V cells, at 1, 2 and 4 hours (FIG. 5A-C)) of the same compound?
The value was about 10 µM.

And the “earliest time at which reduction of NAD(P)H was detected during MMS exposure” value ([1]; EM9-V cells, real-time assay, read about every 30 minutes (FIG. 2B))?
Its value is 30 min.

And the “time for ratio of NAD(P)H in EM9-V versus EM9-XH5 cells to reach a plateau” value ([1]; as a function of exposure time with MMS (FIG. 2C))?
The value was at most 1 h.

What about the “intracellular NAD(P)H on treatment with MMS” value ([2]; MMS at different concentrations for 4 hours, dose-dependent (FIG. 2A)) of the same compound?
Its value is “significantly reduced”.

And the “cell death (trypan blue exclusion) during MMS treatment” value [3]?
The value was “no major cell death”.

What about the “NAD(P)H on exposure to MMS” value [4] of the same compound?
Its value is “reduced NAD(P)H”.

What about the “NAD(P)H on exposure to MMS” value [5] of the same compound?
The value was “more resistant to the decrease in NAD(P)H”.

What about the “MMS concentration at which increase in tail moment was detected (Comet assay)” value (EM9-V cells [6]) of the same compound?
The value was about 50 µM.

And the “sensitivity to MMS (NAD(P)H depletion) among lymphoblastoid cell lines” value [7]?
Its value is “wide variation in the sensitivity”.

For `O=C1NCCc2c(OCCCCN3CCCCC3)cccc21` [DPQ, 3,4-dihydro-5-[4-(1-piperidinyl)butoxy]-1(2H)-isoquinolinone], which “block of MMS-induced decrease in intracellular NAD(P)H” value ([1]; EM9-V cells, DPQ 90 μM applied 1 to 2 hours before and during MMS, 4 hours (FIG. 3B)) is on record?
The value was “almost completely blocked”.

And the “block of MMS-induced decrease in intracellular NAD(P)H” value ([2]; DPQ 90 μM applied 1 to 2 hours before and during MMS, 4 hours (FIG. 3B))?
Its value is “almost completely blocked”.

With `COS(=O)(=O)OC` [DMS, dimethylsulfate] as the compound, how does the “intracellular NAD(P)H significantly reduced by treatment with DMS” value (EM9-V cells [8]; DMS 4 hours (XTT) or 2.5 hours (MTS), dose-dependent (FIG. 7A, B)) read?
The value was “significantly reduced”.

And the “intracellular NAD(P)H significantly reduced by treatment with DMS” value (EM9-XH5 cells)?
Its value is “not”.

Which results are given for `NC(=O)c1cccc(N)c1` [3-AB, 3-aminobenzamide]?
block of MMS-induced decrease in intracellular NAD(P)H ([1]; EM9-V cells, 3-AB 10 mM applied 1 to 2 hours before and during MMS, 4 hours (FIG. 3A)): almost completely blocked; block of MMS-induced decrease in intracellular NAD(P)H ([2]; 3-AB 10 mM applied 1 to 2 hours before and during MMS, 4 hours (FIG. 3A)): almost completely blocked; protection from reduction in NAD(P)H upon exposure to MMS ([4]; 3-AB 10 mM): protected; block of DMS-induced decrease in intracellular NAD(P)H (EM9-V cells [8]; 3-AB 10 mM applied 1 to 2 hours before and during DMS, XTT 4 hours or MTS 2.5 hours (FIG. 7A, B)): completely blocked
